The record followed here is patent publication US10988478B1, “Pyrazolo[1,5a]pyrimidine derivatives as IRAK4 modulators” (Genentech, Inc., priority 2015, dated 2021).

For the assay, the target named is human IRAK4 (Homo sapiens (Human), UniProt Q9NWZ3). The assay is described as follows: IRAK4 kinase inhibition, Transcreener fluorescence polarization ADP assay. Conditions: recombinant full-length His6-IRAK4; 125 uM ATP; 90 min; Ki computed using ATP Km 642 uM. It counts as biochemical. The method, then: Compounds were assayed for inhibition of human IRAK4 and IRAK1 catalytic activity using recombinant enzyme produced from insect cells. Full-length IRAK4 protein, carrying an N-terminal His6-Tag, was obtained from Life Technologies (Carlsbad, Calif., USA). The IRAK1 construct was produced internally and was comprised of IRAK1 residues Arg194 to Ser712, preceded by an NH2-terminal His6 tag and the coding sequence for glutathione-S-transferase.
Sequence of human IRAK4 (Q9NWZ3 whole entry, the tested form may be a part): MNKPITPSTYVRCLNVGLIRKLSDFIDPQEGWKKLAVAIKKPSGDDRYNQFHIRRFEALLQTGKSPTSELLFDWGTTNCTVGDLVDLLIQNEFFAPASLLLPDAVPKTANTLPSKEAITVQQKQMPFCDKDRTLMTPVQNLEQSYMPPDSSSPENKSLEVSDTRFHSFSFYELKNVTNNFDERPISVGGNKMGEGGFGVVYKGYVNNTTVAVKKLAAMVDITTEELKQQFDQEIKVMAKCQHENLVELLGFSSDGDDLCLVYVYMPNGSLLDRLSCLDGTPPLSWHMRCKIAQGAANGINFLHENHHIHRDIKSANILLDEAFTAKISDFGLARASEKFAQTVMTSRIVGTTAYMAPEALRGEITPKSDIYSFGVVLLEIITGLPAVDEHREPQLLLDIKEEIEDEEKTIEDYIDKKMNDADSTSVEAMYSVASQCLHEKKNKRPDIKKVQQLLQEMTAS
(In general: In fluorescence polarisation assays a small probe gives low polarisation when free and higher when bound to something large.)
In the case of `CC1(C)Cc2cc(NC(=O)c3cnn4cccnc34)c(OC[C@H]3CCNC(=O)C3)cc2O1` [Example 306, (S)-N-(2,2-Dimethyl-6-((2-oxopiperidin-4-yl)methoxy)-2,3-dihydrobenzofuran-5-yl)pyrazolo[1,5-α]pyrimidine-3-carboxamide], the Ki worked out at 52 nM.

For the compound `O=C(Nc1cc2c(cc1N1CCOCC1)OC1(CCN(CCF)CC1)C2)c1cnn2cccnc12` [Example 501, N-(1′-(2-fluoroethyl)-6-morpholino-3H-spiro[benzofuran-2,4′-piperidin]-5-yl)pyrazolo[1,5-a]pyrimidine-3-carboxamide], the Ki is 6.9 nM.

Regarding `CC1(C)Cc2cc(NC(=O)c3cnn4cccnc34)c(N3C[C@@H]4CC(F)(F)C[C@@H]4C3)cc2O1` [Example 197, N-(6-((3aR,6aS)-5,5-difluorohexahydrocyclopenta[c]pyrrol-2(1H)-yl)-2,2-dimethyl-2,3-dihydrobenzofuran-5-yl)pyrazolo[1,5-a]pyrimidine-3-carboxamide], the Ki was found to be 33 nM.

Consider `CC1(C)Cc2cc(NC(=O)c3cnn4cccnc34)c(N3C[C@@H](F)[C@@H](F)C3)cc2O1` [Example 203, N-(6-((3R,4S)-3,4-difluoropyrrolidin-1-yl)-2,2-dimethyl-2,3-dihydrobenzofuran-5-yl)pyrazolo[1,5-a]pyrimidine-3-carboxamide], for which the Ki was found to be 15 nM.

As to `CC1(C)Cc2cc(NC(=O)c3cnn4cccnc34)c(N3CCOCC3)cc2S1(=O)=O` [Example 118, N-[2,2-Dimethyl-6-(morpholin-4-yl)-1,1-dioxo-2,3-dihydro-benzothiophen-5-yl]pyrazolo[1,5-a]pyrimidine-3-carboxamide], the Ki came to 14 nM.

For the compound `CC1(C)Cc2cc(NC(=O)c3cnn4cccnc34)c(C3CCN(CC(F)F)CC3)cc2O1` [Example 89, N-[6-[1-(2,2-Difluoroethyl)-4-piperidyl]-2,2-dimethyl-3H-benzofuran-5-yl]pyrazolo[1,5-a]pyrimidine-3-carboxamide], the inhibition constant Ki was found to be 26 nM.

Consider `CC1(C)Cc2cc(NC(=O)c3cnn4cccnc34)c(-n3ccnc3)cc2O1` [Example 103, N-(6-imidazol-1-yl-2,2-dimethyl-3H-benzofuran-5-yl)pyrazolo[1,5-a]pyrimidine-3-carboxamide], for which the Ki is 88 nM.

As for `CC1(C)Cc2cc(NC(=O)c3cnn4cccnc34)c(OC[C@@H]3CNC(=O)C3)cc2O1` [Example 308, N-[2,2-Dimethyl-6-[[(3S)-5-oxopyrrolidin-3-yl]methoxy]-3H-benzofuran-5-yl]pyrazolo[1,5-a]pyrimidine-3-carboxamide], the Ki was found to be 9 nM.

For `C[C@]1(CO)Cc2cc(NC(=O)c3cnn4cc(F)cnc34)c(N3CCN(CC(F)F)CC3)cc2O1` [Example 133, (R)—N-(6-(4-(2,2-Difluoroethyl)piperazin-1-yl)-2-(hydroxymethyl)-2-methyl-2,3-dihydrobenzofuran-5-yl)-6-fluoropyrazolo[1,5-a]pyrimidine-3-carboxamide], the Ki turned out to be 4.1 nM.

In the case of `CC1(C)Cc2cc(NC(=O)c3cnn4cccnc34)c(N3CCCN(CC(F)F)CC3)cc2O1` [Example 149, N-(6-(4-(2,2-difluoroethyl)-1,4-diazepan-1-yl)-2,2-dimethyl-2,3-dihydrobenzofuran-5-yl)pyrazolo[1,5-a]pyrimidine-3-carboxamide], the Ki was 25 nM.

For the compound `CC1(C)Cc2cc(NC(=O)c3cnn4cccnc34)c(N3CCCC3)cc2O1` [Example 214, N-(2,2-dimethyl-6-(pyrrolidin-1-yl)-2,3-dihydrobenzofuran-5-yl)pyrazolo[1,5-a]pyrimidine-3-carboxamide], the Ki worked out at 12 nM.

For the compound `CC1(C)Cc2cc(NC(=O)c3cnn4cccnc34)c(N3CC[C@@H](CO)C3)cc2O1` [Example 15, (R)—N-(6-(3-(Hydroxymethyl)pyrrolidin-1-yl)-2,2-dimethyl-2,3-dihydrobenzofuran-5-yl)pyrazolo[1,5-a]pyrimidine-3-carboxamide], the Ki was found to be 12 nM.

Regarding `O=C(Nc1cc2c(cc1N1CCOCC1)O[C@@](CO)(C(F)(F)F)C2)c1cnn2cccnc12` [Example 154, (S)—N-(2-(hydroxymethyl)-6-morpholino-2-(trifluoromethyl)-2,3-dihydrobenzofuran-5-yl)pyrazolo[1,5-a]pyrimidine-3-carboxamide], the Ki is 9.3 nM.

As to `CCC1(C)Cc2cc(NC(=O)c3cnn4cccnc34)c(N3CCOCC3)cc2O1` (stereo not shown) [Example 21, N-(2-Ethyl-2-methyl-6-morpholino-2,3-dihydrobenzofuran-5-yl)pyrazolo[1,5-a]pyrimidine-3-carboxamide], the inhibition constant Ki is 6.4 nM.

On to `O=C(Nc1cc2c(cc1N1CCOCC1)C(=O)N(C1CCOC1)C2)c1cnn2cccnc12` (stereo not shown) [Example 254, N-(6-Morpholino-1-oxo-2-tetrahydrofuran-3-yl-isoindolin-5-yl)pyrazolo[1,5-a]pyrimidine-3-carboxamide], for which the Ki turned out to be 26 nM.

`C[C@]1(O)COc2cc(N3CCC([C@@](C)(O)C(F)(F)F)CC3)c(NC(=O)c3cnn4cccnc34)cc2C1` (single isomer, unassigned) [Example 422]: the Ki was 110 nM.

`C[C@H](C(N)=O)N1CCN(c2cc3c(cc2NC(=O)c2cnn4cccnc24)CC(C)(C)O3)CC1` [Example 472, N-[6-[4-[(1R)-2-amino-1-methyl-2-oxo-ethyl]piperazin-1-yl]-2,2-dimethyl-3H-benzofuran-5-yl]pyrazolo[1,5-a]pyrimidine-3-carboxamide]: the Ki was determined as 2.5 nM.

As for `CC1(C)Cc2cc(NC(=O)c3cnn4cccnc34)c(OCC3CCNCC3)cc2O1` [Example 309, N-(2,2-Dimethyl-6-(piperidin-4-ylmethoxy)-2,3-dihydrobenzofuran-5-yl)pyrazolo[1,5-α]pyrimidine-3-carboxamide], the Ki is 15 nM.

On to `CC(C)(O)[C@]1(C)Cc2cc(NC(=O)c3cnn4cccnc34)c(N3CCC(CO)CC3)cc2O1` [Example 354, (S)—N-(6-(4-(Hydroxymethyl)piperidin-1-yl)-2-(2-hydroxypropan-2-yl)-2-methyl-2,3-dihydrobenzofuran-5-yl)pyrazolo[1,5-a]pyrimidine-3-carboxamide], for which the Ki turned out to be 3 nM.

In the case of `CC1(C)Cc2cc(NC(=O)c3cnn4cccnc34)c(N3CCCC(c4ncc[nH]4)C3)cc2O1` (stereo not shown) [Example 202, N-(6-(3-(1H-imidazol-2-yl)piperidin-1-yl)-2,2-dimethyl-2,3-dihydrobenzofuran-5-yl)pyrazolo[1,5-a]pyrimidine-3-carboxamide], the Ki turned out to be 690 nM.

As to `CC1(C)Cc2cc(NC(=O)c3cnn4cccnc34)c(N3CCN(C(C)(C)C(N)=O)CC3)cc2O1` [Example 226, N-(6-(4-(1-Amino-2-methyl-1-oxopropan-2-yl)piperazin-1-yl)-2,2-dimethyl-2,3-dihydrobenzofuran-5-yl)pyrazolo[1,5-a]pyrimidine-3-carboxamide], the Ki worked out at 6 nM.

For `CC1(C)Cc2cc(NC(=O)c3cnn4cccnc34)c(N3CCC4(CCCC4O)CC3)cc2O1` (stereo not shown) [Example 109, N-(6-(1-hydroxy-8-azaspiro[4.5]decan-8-yl)-2,2-dimethyl-2,3-dihydrobenzofuran-5-yl)pyrazolo[1,5-a]pyrimidine-3-carboxamide], the Ki is 4.2 nM.

For the compound `CC1(C)Cc2cc(NC(=O)c3cnn4cccnc34)c(OC[C@@H]3C[C@@H]4C[C@@H]4N3CC(F)F)cc2O1` [Example 293, N-(6-(((1S,3S,5S)-2-(2,2-difluoroethyl)-2-azabicyclo[3.1.0]hexan-3-yl)methoxy)-2,2-dimethyl-2,3-dihydrobenzofuran-5-yl)pyrazolo[1,5-a]pyrimidine-3-carboxamide], the Ki came to 690 nM.

As for `CC(C)(O)[C@H](F)CN1Cc2cc(NC(=O)c3cnn4cccnc34)c(N3CCC([C@H](O)C(F)(F)F)CC3)cc2C1=O` (single isomer, unassigned) [Example 259], the Ki worked out at 2 nM.

With `O=C(Nc1cc2c(cc1N1CCOCC1)C(=O)N(C1CCOCC1)C2)c1cnn2cccnc12` [Example 255, N-(6-Morpholino-1-oxo-2-tetrahydropyran-4-yl-isoindolin-5-yl)pyrazolo[1,5-a]pyrimidine-3-carboxamide], the Ki came out at 4 nM.

With `CC1(C)Cc2cc(NC(=O)c3cnn4cccnc34)c(N3CC[N+](C)(CC(N)=O)CC3)cc2O1` [Example 408, 1-(2-Amino-2-oxoethyl)-4-(2,2-dimethyl-5-(pyrazolo[1,5-a]pyrimidine-3-carboxamido)-2,3-dihydrobenzofuran-6-yl)-1-methylpiperazin-1-ium], the Ki is 46 nM.

On to `Cc1cc(COc2cc3c(cc2NC(=O)c2cnn4cccnc24)CC(C)(C)O3)n[nH]1` [Example 542, N-[2,2-Dimethyl-6-[(5-methyl-1H-pyrazol-3-yl)methoxy]-3H-benzofuran-5-yl]pyrazolo[1,5-a]pyrimidine-3-carboxamide], for which the Ki worked out at 59 nM.

`O=C(Nc1cc2c(cc1N1CCOCC1)OCCCN2)c1cnn2cccnc12` [Example 35, N-(8-Morpholino-2,3,4,5-tetrahydrobenzo[b][1,4]oxazepin-7-yl)pyrazolo[1,5-a]pyrimidine-3-carboxamide]: the Ki was 690 nM.

In the case of `CC(C)N1Cc2cc(NC(=O)c3cnn4cc(C(N)=O)cnc34)c(N3CCOCC3)cc2C1=O` [Example 486, N3-(2-isopropyl-6-morpholino-1-oxo-isoindolin-5-yl)pyrazolo[1,5-a]pyrimidine-3,6-dicarboxamide], the Ki is 37 nM.

`CCn1cc(COc2cc3c(cc2NC(=O)c2cnn4cccnc24)CC(C)(C)O3)cn1` [Example 448, N-(6-((1-ethyl-1H-pyrazol-4-yl)methoxy)-2,2-dimethyl-2,3-dihydrobenzofuran-5-yl)pyrazolo[1,5-a]pyrimidine-3-carboxamide]: the Ki was 24 nM.

Turning to `CC1(C)Cc2cc(NC(=O)c3cnn4cccnc34)c(N3CCn4ccnc4C3)cc2O1` [Example 233], the Ki amounted to 100 nM.

The term Ki denotes the dissociation constant of the complex between target and ligand, obtained from inhibition or displacement.
